pIC50: −log10 of the molar value.
Columns and labels:
Assay type in all cases: cell-based
murine CCR2 [1] = target: T1, murine CCR2 (Mus musculus, UniProt P51683); assay: Functional β-arrestin recruiting test with human MCP-1 (B-2a); conditions: U2OS β-arrestin cell line transfected with murine CCR2; agonist human MCP-1 at EC50 (about 3 nM)
T1 construct: host or cells: U2OS β-arrestin cell line
Description: (§1) The antagonistic action of test substances on CCR2 was determined in a β-arrestin test. The PathHunter β-arrestin GPCR test system (DiscoveRx Corporation, Ltd.) is a cell-based functional method for detecting binding of β-arrestin to an activated receptor. The molecular basis is a β-galactosidase complementation measured by the enzymatic conversion of a chemiluminescent substrate. The test cell used was a U2OS β-arrestin cell line transfected with murine CCR2 (93-0543C3, DiscoveRx Corporation, Ltd.).
(§2) The test substances were dissolved in dimethyl sulphoxide (DMSO) at a concentration of 10 mM and serially diluted with DMSO in steps of 1:3.16 for a 10-point dose/activity analysis. According to the desired test concentrations, the substances were pre-diluted in Tyrode with 2 mM CaCl2 and 0.05% BSA.
(§3) The cells, cultivated in MEM Eagle (supplemented with 10% FCS, 50 U/ml of penicillin, 50 μg/ml of streptomycin, 250 μg/ml of hygromycin and 500 μg/ml of geniticin), were sown at 2000 cells/25 μl in 384 well, μCLEAR/black cell culture plates from Greiner (#781092) and incubated at 37° C. for 24 h. The sowing medium consisted of Opti-MEM (supplemented with 1% FCS, 50 U/ml of penicillin and 50 μg/ml of streptomycin). The cells were pre-incubated for 10 min with 10 μl of the test substances diluted in buffer, and 10 μl of agonist solution [human MCP-1 (PeproTech, #300-04) in Tyrode with 0.05% BSA] were then added. The human MCP-1 was employed at the concentration which corresponds to the EC50 which had been determined in a preliminary test (usually about 3 nM). After 90 min of incubation at 37° C., the solution was removed, and recruitment of β-arrestin to CCR2 was detected with the aid of the PathHunter detection reagent (93-001, DiscoveRx Corporation, Ltd.) according to the instructions of the manufacturer. Luminescence was measured after an incubation time of 60 min using a proprietary luminescence imaging measuring instrument. The molar concentration of the test substance which caused 50% inhibition of the MCP-1 effect (IC50) was determined using a 4-parameter logistic function (Hill function).

human CCR2 = target: T2, human CCR2 (Homo sapiens, UniProt P41597); assay: Functional Ca2+ release test (B-1); conditions: Chem-1 cell line transfected with human CCR2, inhibition of MCP-1 effect, MCP-1 at EC50 (about 5 nM), Fluo-4
T2 construct: host or cells: Chem-1 cell line
T2 sequence (P41597 1-360 isoform P41597-2): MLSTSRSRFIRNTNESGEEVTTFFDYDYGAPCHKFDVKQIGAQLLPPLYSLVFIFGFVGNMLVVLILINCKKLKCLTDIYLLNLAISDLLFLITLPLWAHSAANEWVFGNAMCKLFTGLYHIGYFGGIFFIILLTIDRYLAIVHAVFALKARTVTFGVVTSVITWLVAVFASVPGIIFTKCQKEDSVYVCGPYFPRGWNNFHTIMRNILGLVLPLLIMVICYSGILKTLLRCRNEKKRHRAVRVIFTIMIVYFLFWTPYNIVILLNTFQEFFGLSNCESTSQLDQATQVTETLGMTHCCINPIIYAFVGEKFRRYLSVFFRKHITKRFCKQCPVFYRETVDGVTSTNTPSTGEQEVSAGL
Description: The antagonistic action of test substances on CCR2 was determined in a functional Ca^2+ release test. Binding of CCL2/MCP-1 to CCR2 leads to a change in the conformation of the receptor resulting in Gi/Gq protein activation and intracellular signal cascade. This involves, inter alia, an intracellular Ca^2+ release. The test cell used was a Chem-1 cell line transfected with human CCR2 (ChemiSCREEN™ CCR2B Calcium-Optimized FLIPR Cell Line, Merck Millipore).
as §2
The cells, cultivated in DMEM high glucose [supplemented with 10% FCS, 1 mM pyruvate, 15 mM HEPES, 500 μg/ml geniticin and non-essential amino acids (NEAA)], were sown at 5000 cells/25 μl in 384 well, μCLEAR/black cell culture plates from Greiner (#781092) and incubated at 37° C. for 24 h. The sowing medium consisted of DMEM high glucose [supplemented with 5% FCS, 1 mM pyruvate, 15 mM HEPES, 50 U/ml penicillin, 50 μg/ml streptomycin and non-essential amino acids (NEAA)]. The medium was then removed and the cells were charged for 60 min at 37° C. with Fluo-4 dye [25 μl Tyrode with 3 μM Fluo-4 AM (1 mM DMSO stock solution), 0.4 mg/ml Brilliant Black, 2.5 mM probenicid, 0.03% Pluronic F-127]. The cells were pre-incubated for 10 min with 10 μl of the test substances diluted in buffer, and 20 μl of agonist solution (MCP-1 in Tyrode with 0.05% BSA) were then added. MCP-1 was employed at the concentration which corresponds to the EC50 which had been determined in a preliminary test (usually about 5 nM). Ca^2+ release was monitored over a period of 120 s in 1 s increments in a proprietary fluorescence imaging reader. The molar concentration of the test substance which caused 50% inhibition of the MCP-1 effect (IC50) was determined using a 4-parameter logistic function (Hill function).

murine CCR2 [2] = target: T1, murine CCR2; assay: Functional β-arrestin recruiting test with murine MCP-1 (B-2b); conditions: U2OS β-arrestin cell line transfected with murine CCR2; agonist murine MCP-1
Description: as §1, §2, §3
The test was carried out in a manner identical to that described above under B-2a, but using murine MCP-1 (PeproTech, #250-10) as agonist.

T1 sequence (P51683 whole entry): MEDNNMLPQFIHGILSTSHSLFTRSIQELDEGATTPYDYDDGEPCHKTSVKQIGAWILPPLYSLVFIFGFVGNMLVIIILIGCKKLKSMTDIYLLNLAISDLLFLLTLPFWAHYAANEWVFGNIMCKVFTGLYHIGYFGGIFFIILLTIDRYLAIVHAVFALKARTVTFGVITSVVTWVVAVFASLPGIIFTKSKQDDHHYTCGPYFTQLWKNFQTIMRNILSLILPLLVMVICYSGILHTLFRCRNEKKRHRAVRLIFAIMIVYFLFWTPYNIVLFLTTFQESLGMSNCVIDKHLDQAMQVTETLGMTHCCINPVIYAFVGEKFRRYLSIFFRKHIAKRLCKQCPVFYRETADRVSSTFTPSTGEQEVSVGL

| pIC50 (murine CCR2 [1]) | pIC50 (human CCR2) | pIC50 (murine CCR2 [2]) | Structure (SMILES) |
| --- | --- | --- | --- |
| 6.66 | 6.92 | – | CCc1nc(C(F)(F)F)c(Cc2ccc(Cl)c(Cl)c2)c(=O)[nH]1 [Example 31, 5-(3,4-dichlorobenzyl)-2-ethyl-6-(trifluoromethyl)pyrimidin-4(3H)-one] |
| 6.27 | 6.66 | – | CCc1nc(C(F)(F)F)c(Cc2ccc(Cl)c(F)c2)c(=O)[nH]1 [Example 32, 5-(4-chloro-3-fluorobenzyl)-2-ethyl-6-(trifluoromethyl)pyrimidin-4(3H)-one] |
| 6.28 | 6.82 | – | O=c1[nH]c(C2CC2)nc(C(F)(F)F)c1Cc1ccc(F)c(Cl)c1 [Example 34, 5-(3-chloro-4-fluorobenzyl)-2-cyclopropyl-6-(trifluoromethyl)pyrimidin-4(3H)-one] |
| 5.43 | 6.82 | – | NC(=O)Cc1nc(C(F)(F)F)c(Cc2ccc(C(F)(F)F)c(Cl)c2)c(=O)[nH]1 [Example 35, 2-{5-[3-Chloro-4-(trifluoromethyl)benzyl]-6-oxo-4-(trifluoromethyl)-1,6-dihydropyrimidin-2-yl}acetamide] |
| 5.80 | 6.96 | – | NC(=O)Cc1nc(C(F)(F)F)c(Oc2ccc(F)c(Cl)c2)c(=O)[nH]1 [Example 36] |
| 5.42 | 6.32 | – | NC(=O)Cc1nc(C(F)(F)F)c(Oc2ccc(F)c(F)c2)c(=O)[nH]1 [Example 37] |
| 5.48 | 6.49 | – | NC(=O)Cc1nc(C(F)(F)F)c(Oc2cccc(Cl)c2)c(=O)[nH]1 [Example 38] |
| 5.74 | 6.80 | – | NC(=O)Cc1nc(C(F)(F)F)c(Oc2ccc(Cl)c(F)c2)c(=O)[nH]1 [Example 39] |
| 6.01 | 6.82 | – | NC(=O)Cc1nc(C(F)(F)F)c(Cc2ccc(Cl)c(F)c2)c(=O)[nH]1 [Example 40] |
| 5.70 | 6.57 | – | NC(=O)Cc1nc(C(F)(F)F)c(Cc2cccc(C(F)(F)F)c2)c(=O)[nH]1 [Example 41] |
| 5.55 | 6.40 | – | NC(=O)Cc1nc(C(F)(F)F)c(Cc2cc(F)cc(C(F)(F)F)c2)c(=O)[nH]1 [Example 42] |
| 6.06 | 6.57 | – | NC(=O)Cc1nc(C(F)(F)F)c(Cc2cccc(Cl)c2)c(=O)[nH]1 [Example 43] |
| 6.38 | 7.05 | – | NC(=O)Cc1nc(C(F)(F)F)c(Cc2ccc(F)c(Cl)c2)c(=O)[nH]1 [Example 44] |
| 6.36 | 7.70 | – | NC(=O)Cc1nc(C(F)(F)F)c(Oc2ccc(Cl)c(Cl)c2)c(=O)[nH]1 [Example 46] |
| 6.08 | 7.31 | – | Cc1ccc(Cc2c(C(F)(F)F)nc(CC(N)=O)[nH]c2=O)cc1Cl [Example 47] |
| 6.52 | 7.51 | – | NC(=O)Cc1nc(C(F)(F)F)c(Cc2ccc(Cl)c(C(F)(F)F)c2)c(=O)[nH]1 [Example 48] |
| 6.34 | 7.19 | – | NC(=O)Cc1nc(C(F)(F)F)c(Cc2ccc(Cl)c(Cl)c2)c(=O)[nH]1 [Example 50] |
| 6.64 | 7.85 | – | O=c1[nH]c(CO)nc(C(F)(F)F)c1Cc1ccc(Cl)c(Cl)c1 [Example 51, 5-(3,4-Dichlorobenzyl)-2-(hydroxymethyl)-6-(trifluoromethyl)pyrimidin-4(3H)-one] |
| 6.85 | 8.11 | – | O=c1[nH]c(CO)nc(C(F)(F)F)c1Oc1ccc(F)c(Cl)c1 [Example 52] |
| 6.48 | 7.77 | – | NC(=O)Nc1nc(C(F)(F)F)c(Cc2ccc(Cl)c(Cl)c2)c(=O)[nH]1 [Example 56, 1-[5-(3,4-Dichlorobenzyl)-6-oxo-4-(trifluoromethyl)-1,6-dihydropyrimidin-2-yl]urea] |

The next lines start with the compound.

| Structure (SMILES) | pIC50 (murine CCR2 [1]) | pIC50 (human CCR2) | pIC50 (murine CCR2 [2]) |
| --- | --- | --- | --- |
| Cc1ccc(Cc2c(C(F)(F)F)nc(C3CC3)[nH]c2=O)cc1Cl [Example 29, 5-(3-chloro-4-methylbenzyl)-2-cyclopropyl-6-(trifluoromethyl)pyrimidin-4(3H)-one] | 6.10 | 7.04 | – |
| O=c1[nH]c(C2CC2)nc(C(F)(F)F)c1Cc1ccc(Cl)c(Cl)c1 [Example 30, 2-cyclopropyl-5-(3,4-dichlorobenzyl)-6-(trifluoromethyl)pyrimidin-4(3H)-one] | 6.26 | 7.00 | – |
| CCc1nc(C(F)(F)F)c(Oc2ccc(Cl)c(Cl)c2)c(=O)[nH]1 [Example 33, 5-(3,4-dichlorophenoxy)-2-ethyl-6-(trifluoromethyl)pyrimidin-4(3H)-one] | 7.13 | 7.82 | – |
| NC(=O)Cc1nc(C(F)(F)F)c(Oc2ccc(Cl)c(C(F)(F)F)c2)c(=O)[nH]1 [Example 45] | 6.89 | 8.10 | – |
| NC(=O)Cc1nc(C(F)(F)F)c(Oc2ccc(F)c(C(F)(F)F)c2)c(=O)[nH]1 [Example 49] | 6.42 | 7.04 | – |
| O=c1[nH]c(CO)nc(C(F)(F)F)c1Oc1ccc(F)c(F)c1 [Example 53] | 6.21 | 7.15 | – |
| O=c1[nH]c(CO)nc(C(F)(F)F)c1Oc1cccc(Cl)c1 [Example 54] | 6.85 | 8.00 | – |
| O=c1[nH]c(CO)nc(C(F)(F)F)c1Oc1ccc(Cl)c(F)c1 [Example 55] | 6.92 | 8.21 | – |
| Nc1nc(C(F)(F)F)c(Oc2ccc(Cl)c(OC(F)(F)F)c2)c(=O)[nH]1 [Example 57] | – | 8.74 | 5.64 |
| Nc1nc(C(F)(F)F)c(Cc2ccc(Cl)nc2)c(=O)[nH]1 [Example 58] | – | 6.42 | 4.22 |
| Nc1nc(C(F)(F)F)c(Cc2cnc(Cl)c(Cl)c2)c(=O)[nH]1 [Example 59] | – | 7.96 | 5.14 |
| Nc1nc(C(F)(F)F)c([S+]([O-])c2ccc(Cl)c(C(F)(F)F)c2)c(=O)[nH]1 (stereo not drawn) [Example 60, 2-Amino-5-{[4-chloro-3-(trifluoromethyl)phenyl]sulphinyl}-6-(trifluoromethyl)pyrimidin-4(3H)-one] | – | 6.93 | 5.84 |
| Nc1nc(C(F)(F)F)c(S(=O)(=O)c2ccc(Cl)c(C(F)(F)F)c2)c(=O)[nH]1 [Example 61] | – | 6.96 | 5.53 |
| Nc1nc(C(F)(F)F)c([S+]([O-])c2ccc(Cl)c(Cl)c2)c(=O)[nH]1 (stereo not drawn) [Example 62] | – | 6.27 | 5.87 |
| CN(C)c1nc(C(F)(F)F)c(Oc2ccc(Cl)c(Cl)c2)c(=O)[nH]1 [Example 67] | 6.00 | 7.26 | – |
| O=c1[nH]c(CCO)nc(C(F)(F)F)c1Oc1ccc(Cl)c(Cl)c1 [Example 68] | 6.43 | 7.31 | – |
